Columns and labels:
LTK = LTK (Homo sapiens, UniProt P29376); assay: KinomeScan profiling; type: binding; settings: read-out: % control
Summary of the method: (§1)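 First, compounds in DMSO are added at 1 μM to each of 468 kinase assays. Next, RLU signals are normalised between positive control (0%) and DMSO (100%). Finally, kinases under 35% are flagged active.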

EGFR(L858R, T790M) = EGFR(L858R, T790M) (Homo sapiens, UniProt P00533, L858R/T790M); assay: KinomeScan profiling; type: binding; settings: read-out: % control
Summary of the method: as §1

FLT3(ITD, F691L) = assay: KinomeScan profiling; type: binding; settings: 1 μM
Summary of the method: as §1

LRRK2(G2019S) [1] = molecular target: T1, LRRK2(G2019S) (Homo sapiens, UniProt Q5S007, G2019S); assay: KinomeScan profiling; type: binding; settings: read-out: % control
Summary of the method: as §1

SLK = molecular target: T2, SLK (Homo sapiens, UniProt Q9H2G2); assay: KinomeScan profiling; type: binding; settings: read-out: % control
T2 construct: purchased KinomeScan® (panel service)
Summary of the method: as §1

FLT3(ITD, D835V) = assay: KinomeScan profiling; type: binding; settings: 1 μM
Summary of the method: as §1

FLT3(ITD) = assay: KinomeScan profiling; type: binding; settings: 1 μM
Summary of the method: as §1

INSRR = molecular target: T3, INSRR (Homo sapiens, UniProt P14616); assay: KinomeScan profiling; type: binding; settings: read-out: % control
T3 construct: purchased KinomeScan®
Summary of the method: as §1

ALK(C1156Y) = molecular target: T4, ALK(C1156Y) (Homo sapiens, UniProt Q9UM73, C1156Y); assay: KinomeScan profiling; type: binding; settings: read-out: % control
T4 construct: purchased KinomeScan®
Summary of the method: as §1

CSNK1D = CSNK1D (Homo sapiens, UniProt P48730); assay: KinomeScan profiling; type: binding; settings: read-out: % control
Summary of the method: as §1

NEK3 = molecular target: T5, NEK3 (Homo sapiens, UniProt P51956); assay: KinomeScan profiling; type: binding; settings: NEK3, 1 μM; read-out: % control
T5 sequence (P51956 1-506): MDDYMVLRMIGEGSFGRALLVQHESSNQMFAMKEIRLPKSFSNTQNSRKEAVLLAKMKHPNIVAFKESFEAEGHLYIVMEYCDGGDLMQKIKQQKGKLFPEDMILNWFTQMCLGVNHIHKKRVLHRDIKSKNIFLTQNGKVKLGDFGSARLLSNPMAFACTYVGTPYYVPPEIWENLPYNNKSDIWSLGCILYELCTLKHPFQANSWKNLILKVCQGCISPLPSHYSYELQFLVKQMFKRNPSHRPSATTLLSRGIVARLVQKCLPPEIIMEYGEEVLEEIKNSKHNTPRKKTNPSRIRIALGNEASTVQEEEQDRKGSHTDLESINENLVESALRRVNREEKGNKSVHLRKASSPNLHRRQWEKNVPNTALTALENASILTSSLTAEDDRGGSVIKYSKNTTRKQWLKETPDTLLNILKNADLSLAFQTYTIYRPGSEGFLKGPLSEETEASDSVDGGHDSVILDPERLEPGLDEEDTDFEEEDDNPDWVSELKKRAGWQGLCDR
Summary of the method: as §1

CDK11 = CDK11 (Homo sapiens, UniProt Q9BWU1); assay: KinomeScan profiling; type: binding; settings: CDK11, 1 μM; read-out: % control
Summary of the method: as §1

LRRK2(G2019S) [2] = molecular target: T1, LRRK2(G2019S); assay: LRRK2 G2019S kinase inhibition assay (ADP-Glo); type: biochemical; parameters: purchased SignalChem L10-12GG; settings: Table 2, class symbols; read-out: Enzyme activity against LRRK2 G2019S (IC50)
Description: (§2) IC50 experiments were performed for inventive compounds. An exemplary kit to perform this assay includes the Adapta™ Screening Protocol and Assay Conditions by Invitrogen™ (Fisher Scientific™, Catalog No. PV5099).
(§3) All LRRK2 kinase inhibition assays were conducted by using Promega ADP-Glo™ Kinase assay systems (Catalog number; V4475). Inhibitors were tested with 12 concentrations over a 5-fold serial dilution series (50 μM, 10 μM, 2 μM, 400 nM, 80 nM, 16 nM, 3.2 nM, […]) and PF06447475 as positive control. For the LRRK2 wild type (WT) enzyme assay, each inhibitor was mixed with 0.2 μg/μL of substrate (LRRKtide, SignalChem, Richmond, BC, Canada), […] (Invitrogen™, Carlsbad, CA), 24 ng of LRRK2 WT enzyme (Thermo Fisher Scientific, PR8604B) in 384-well plate. For LRRK G2019S, each compound was mixed with 0.2 μg/μL of substrate, […], 16 ng of LRRK2 G2019S enzyme (SignalChem, L10-12GG). All samples were diluted with kinase reaction buffer (40 mmol/L TrisHCl, 10 mmol/L MgCl2, and 0.1 μg/μL BSA (bovine serum albumin)). After 2 hours at 25° C., ADP-Glo™ (Promega, Madison, WI) reagent was added and the samples were incubated at rt for 40 min. Finally, Kinase Detection Reagent was added and the resulting mixtures were allowed to react at rt for 10 min. Luminescence signals were detected using Synergy™ Neo2 microplate reader (Bio-Tek). Compound inhibition curve was fitted using Graphpad Prism 8.0 software.

LRRK2 WT enzyme = molecular target: T6, LRRK2 WT enzyme (Homo sapiens, UniProt Q5S007); assay: LRRK2 wild type kinase inhibition assay (ADP-Glo); type: biochemical; settings: Table 2, class symbols; read-out: Enzyme activity against LRRK2 WT (IC50)
T6 construct: purchased Thermo Fisher Scientific PR8604B
Description: as §2, §3

PKNB(M. tuberculosis) = PKNB(M. tuberculosis) (Mycobacterium tuberculosis, UniProt P9WI81); assay: KinomeScan profiling; type: binding; settings: read-out: % control

Chain of EGFR(L858R, T790M) (P00533 25-1210 T790M/L858R): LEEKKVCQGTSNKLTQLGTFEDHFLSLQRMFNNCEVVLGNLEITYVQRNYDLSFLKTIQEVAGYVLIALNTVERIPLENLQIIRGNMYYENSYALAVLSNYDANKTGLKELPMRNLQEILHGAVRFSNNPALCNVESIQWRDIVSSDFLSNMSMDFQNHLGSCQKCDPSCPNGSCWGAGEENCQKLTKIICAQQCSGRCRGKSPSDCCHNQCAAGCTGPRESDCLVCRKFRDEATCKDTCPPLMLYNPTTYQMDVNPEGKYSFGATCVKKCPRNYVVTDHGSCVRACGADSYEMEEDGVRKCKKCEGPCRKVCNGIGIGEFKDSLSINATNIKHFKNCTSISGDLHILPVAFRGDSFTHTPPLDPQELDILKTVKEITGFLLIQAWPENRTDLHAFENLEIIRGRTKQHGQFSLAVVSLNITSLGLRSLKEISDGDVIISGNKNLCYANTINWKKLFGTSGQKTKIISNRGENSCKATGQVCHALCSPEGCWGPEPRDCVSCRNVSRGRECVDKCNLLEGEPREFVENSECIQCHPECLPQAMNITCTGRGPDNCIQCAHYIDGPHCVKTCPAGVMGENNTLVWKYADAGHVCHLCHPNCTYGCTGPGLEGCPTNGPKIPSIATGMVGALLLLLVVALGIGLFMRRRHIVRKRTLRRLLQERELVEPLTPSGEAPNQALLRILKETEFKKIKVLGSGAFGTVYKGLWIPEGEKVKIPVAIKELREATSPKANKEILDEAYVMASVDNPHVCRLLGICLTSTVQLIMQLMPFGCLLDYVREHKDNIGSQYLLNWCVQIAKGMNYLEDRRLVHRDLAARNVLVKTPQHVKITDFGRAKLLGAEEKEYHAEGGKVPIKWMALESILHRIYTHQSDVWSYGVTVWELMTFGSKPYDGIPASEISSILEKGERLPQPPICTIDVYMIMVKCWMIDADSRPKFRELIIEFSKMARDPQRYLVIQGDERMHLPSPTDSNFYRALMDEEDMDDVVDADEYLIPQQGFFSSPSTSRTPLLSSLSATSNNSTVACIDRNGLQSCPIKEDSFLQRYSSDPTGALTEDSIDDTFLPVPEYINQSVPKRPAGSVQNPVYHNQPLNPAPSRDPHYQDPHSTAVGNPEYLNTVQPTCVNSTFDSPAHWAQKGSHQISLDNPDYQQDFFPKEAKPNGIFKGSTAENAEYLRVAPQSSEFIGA
Chain of CSNK1D (P48730 whole entry): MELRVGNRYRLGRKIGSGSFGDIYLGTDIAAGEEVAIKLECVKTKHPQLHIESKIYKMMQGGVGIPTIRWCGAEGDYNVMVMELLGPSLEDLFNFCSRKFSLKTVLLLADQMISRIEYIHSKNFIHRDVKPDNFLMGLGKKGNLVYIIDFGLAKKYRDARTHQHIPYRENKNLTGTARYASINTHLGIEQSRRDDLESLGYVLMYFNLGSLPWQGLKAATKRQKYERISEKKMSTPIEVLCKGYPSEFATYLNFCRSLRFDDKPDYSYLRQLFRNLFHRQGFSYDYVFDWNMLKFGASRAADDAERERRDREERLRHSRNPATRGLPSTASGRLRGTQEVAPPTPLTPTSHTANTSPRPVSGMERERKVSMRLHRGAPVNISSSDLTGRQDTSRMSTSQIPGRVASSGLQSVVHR
T4 sequence (Q9UM73 19-1620 C1156Y): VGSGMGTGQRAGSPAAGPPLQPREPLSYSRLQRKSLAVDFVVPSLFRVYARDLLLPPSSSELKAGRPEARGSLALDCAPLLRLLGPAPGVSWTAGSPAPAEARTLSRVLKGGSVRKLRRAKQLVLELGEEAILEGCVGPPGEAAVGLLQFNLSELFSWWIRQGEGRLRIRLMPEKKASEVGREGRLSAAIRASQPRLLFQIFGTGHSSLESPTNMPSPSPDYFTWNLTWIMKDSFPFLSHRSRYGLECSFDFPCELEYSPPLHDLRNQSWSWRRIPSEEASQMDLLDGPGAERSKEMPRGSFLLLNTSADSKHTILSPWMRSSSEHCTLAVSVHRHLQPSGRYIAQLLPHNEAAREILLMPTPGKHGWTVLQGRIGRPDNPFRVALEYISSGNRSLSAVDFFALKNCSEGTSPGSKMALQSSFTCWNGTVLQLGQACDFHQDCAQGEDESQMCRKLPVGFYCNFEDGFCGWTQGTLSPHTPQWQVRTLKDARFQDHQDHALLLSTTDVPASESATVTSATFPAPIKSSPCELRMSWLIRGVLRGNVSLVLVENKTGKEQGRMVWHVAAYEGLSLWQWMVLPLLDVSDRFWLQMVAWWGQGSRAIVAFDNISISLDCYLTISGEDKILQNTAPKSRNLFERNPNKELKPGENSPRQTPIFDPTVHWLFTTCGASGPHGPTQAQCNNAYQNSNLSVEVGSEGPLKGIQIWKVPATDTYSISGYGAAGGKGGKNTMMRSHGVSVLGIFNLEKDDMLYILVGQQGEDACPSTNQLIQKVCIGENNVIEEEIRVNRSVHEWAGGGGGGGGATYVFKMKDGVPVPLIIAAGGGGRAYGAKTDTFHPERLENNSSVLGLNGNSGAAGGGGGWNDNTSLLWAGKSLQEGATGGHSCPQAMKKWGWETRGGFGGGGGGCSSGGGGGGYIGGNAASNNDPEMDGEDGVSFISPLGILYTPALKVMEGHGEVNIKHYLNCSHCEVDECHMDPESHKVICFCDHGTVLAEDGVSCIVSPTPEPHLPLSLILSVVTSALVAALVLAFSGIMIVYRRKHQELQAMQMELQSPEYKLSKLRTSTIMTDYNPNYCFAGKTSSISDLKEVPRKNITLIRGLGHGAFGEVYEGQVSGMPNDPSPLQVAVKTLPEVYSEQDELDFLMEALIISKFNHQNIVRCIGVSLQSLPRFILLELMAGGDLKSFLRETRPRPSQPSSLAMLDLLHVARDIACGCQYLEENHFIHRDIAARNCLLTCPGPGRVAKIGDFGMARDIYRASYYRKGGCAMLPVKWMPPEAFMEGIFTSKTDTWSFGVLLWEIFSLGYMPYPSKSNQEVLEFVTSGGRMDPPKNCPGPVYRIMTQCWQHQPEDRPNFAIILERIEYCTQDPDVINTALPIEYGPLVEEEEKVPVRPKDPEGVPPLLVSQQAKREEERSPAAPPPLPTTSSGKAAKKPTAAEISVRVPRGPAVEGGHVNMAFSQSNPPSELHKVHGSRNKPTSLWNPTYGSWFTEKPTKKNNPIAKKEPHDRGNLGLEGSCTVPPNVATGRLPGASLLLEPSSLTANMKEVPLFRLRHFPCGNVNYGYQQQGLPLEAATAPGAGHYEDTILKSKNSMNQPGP
T3 sequence (P14616 27-1297): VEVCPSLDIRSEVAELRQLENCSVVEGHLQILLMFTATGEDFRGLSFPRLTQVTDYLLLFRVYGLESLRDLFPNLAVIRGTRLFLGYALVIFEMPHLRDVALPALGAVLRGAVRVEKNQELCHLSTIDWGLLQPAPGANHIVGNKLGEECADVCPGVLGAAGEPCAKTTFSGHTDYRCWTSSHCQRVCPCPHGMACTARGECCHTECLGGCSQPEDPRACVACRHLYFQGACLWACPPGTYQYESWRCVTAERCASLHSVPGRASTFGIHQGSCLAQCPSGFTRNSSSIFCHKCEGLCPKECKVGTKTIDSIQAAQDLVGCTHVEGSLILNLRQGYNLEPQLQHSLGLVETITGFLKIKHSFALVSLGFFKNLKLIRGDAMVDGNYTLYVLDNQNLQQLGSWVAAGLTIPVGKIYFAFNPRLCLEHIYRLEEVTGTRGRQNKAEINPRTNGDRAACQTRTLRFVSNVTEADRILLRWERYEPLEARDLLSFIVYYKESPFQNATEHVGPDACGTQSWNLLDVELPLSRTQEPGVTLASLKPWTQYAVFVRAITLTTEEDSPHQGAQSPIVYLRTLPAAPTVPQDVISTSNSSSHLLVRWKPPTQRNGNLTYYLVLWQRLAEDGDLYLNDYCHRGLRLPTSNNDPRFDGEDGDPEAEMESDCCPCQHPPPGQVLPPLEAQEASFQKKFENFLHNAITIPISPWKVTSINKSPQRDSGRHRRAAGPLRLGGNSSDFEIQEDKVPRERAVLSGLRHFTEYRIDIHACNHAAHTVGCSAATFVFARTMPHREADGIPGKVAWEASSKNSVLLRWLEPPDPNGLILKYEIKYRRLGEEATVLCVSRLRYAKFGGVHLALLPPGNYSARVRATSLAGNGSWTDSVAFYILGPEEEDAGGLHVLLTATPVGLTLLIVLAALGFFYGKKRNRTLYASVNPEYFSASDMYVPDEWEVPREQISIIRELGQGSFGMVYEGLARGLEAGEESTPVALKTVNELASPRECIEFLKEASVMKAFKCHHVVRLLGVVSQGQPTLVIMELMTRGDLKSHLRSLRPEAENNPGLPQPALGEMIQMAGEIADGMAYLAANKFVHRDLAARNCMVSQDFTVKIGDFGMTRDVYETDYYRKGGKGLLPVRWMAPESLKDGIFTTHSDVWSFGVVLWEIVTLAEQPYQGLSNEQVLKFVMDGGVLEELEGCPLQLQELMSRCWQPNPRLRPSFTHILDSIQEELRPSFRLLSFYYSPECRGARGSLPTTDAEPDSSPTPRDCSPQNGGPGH
Chain of CDK11 (Q9BWU1 whole entry): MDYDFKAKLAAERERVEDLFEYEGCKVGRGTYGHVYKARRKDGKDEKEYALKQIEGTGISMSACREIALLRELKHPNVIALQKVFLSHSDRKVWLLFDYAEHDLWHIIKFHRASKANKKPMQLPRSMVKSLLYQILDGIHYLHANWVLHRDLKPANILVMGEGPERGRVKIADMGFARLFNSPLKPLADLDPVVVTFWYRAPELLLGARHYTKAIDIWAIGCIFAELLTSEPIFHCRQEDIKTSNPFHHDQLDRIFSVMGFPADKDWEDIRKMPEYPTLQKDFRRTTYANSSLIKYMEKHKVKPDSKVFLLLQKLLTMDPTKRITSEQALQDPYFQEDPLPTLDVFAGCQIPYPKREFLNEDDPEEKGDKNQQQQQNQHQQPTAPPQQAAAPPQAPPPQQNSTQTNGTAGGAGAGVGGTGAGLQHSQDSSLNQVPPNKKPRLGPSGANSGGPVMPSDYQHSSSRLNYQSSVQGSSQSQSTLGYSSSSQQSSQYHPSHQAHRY

What does the source list for CNc1c(-c2ccc(C(=O)N3CCC(N4CCOCC4)CC3)cc2)cnc2[nH]cc(Cl)c12 [Compound 96, (4-(3-chloro-4-(methylamino)-1H-pyrrolo[2,3-b]pyridin-5-yl)phenyl)(4-morpholinopiperidin-1-yl)methanone]?
remaining binding at 1 µM (LTK): 62%; remaining binding at 1 µM (EGFR(L858R, T790M)): 98%; % control (FLT3(ITD, F691L)): 0%; remaining binding at 1 µM (LRRK2(G2019S) [1]): 3.2%; remaining binding at 1 µM (SLK): 68%; % control (FLT3(ITD, D835V)): 3.6%; % control (FLT3(ITD)): 8.1%; remaining binding at 1 µM (INSRR): 96%; remaining binding at 1 µM (ALK(C1156Y)): 37%; remaining binding at 1 µM (CSNK1D): 90%; remaining binding at 1 µM (NEK3): 82%; remaining binding at 1 µM (CDK11): 68%; IC50 (LRRK2(G2019S) [2]): < 10 nM; IC50 (LRRK2 WT enzyme): 10 to 100 nM; remaining binding at 1 µM (PKNB(M. tuberculosis)): 61%

With O=C(c1ccc(-c2cnc3[nH]cc(Cl)c3c2NC2CCCC2)cc1)N1CCC(N2CCOCC2)CC1 [Compound 101, (4-(3-chloro-4-(cyclopentylamino)-1H-pyrrolo[2,3-b]pyridin-5-yl)phenyl)(4-morpholinopiperidin-1-yl)methanone] as the molecule, how does the remaining binding at 1 µM (LTK) read?
The remaining binding at 1 µM was 72%.

What about the remaining binding at 1 µM (EGFR(L858R, T790M)) of the same molecule?
The remaining binding at 1 µM was 100%.

And the “% control” value (FLT3(ITD, F691L))?
Its value is 49%.

What about the remaining binding at 1 µM (LRRK2(G2019S) [1]) of the same molecule?
The remaining binding at 1 µM was 22%.

And the remaining binding at 1 µM (SLK)?
Its remaining binding at 1 µM is 78%.

What about the “% control” value (FLT3(ITD, D835V)) of the same molecule?
The value was 55%.

What about the “% control” value (FLT3(ITD)) of the same molecule?
The value was 41%.

What about the remaining binding at 1 µM (INSRR) of the same molecule?
The remaining binding at 1 µM was 84%.

And the remaining binding at 1 µM (ALK(C1156Y))?
The remaining binding at 1 µM was 66%.

And the remaining binding at 1 µM (CSNK1D)?
Its remaining binding at 1 µM is 92%.

What about the remaining binding at 1 µM (NEK3) of the same molecule?
Its remaining binding at 1 µM is 95%.

What about the remaining binding at 1 µM (CDK11) of the same molecule?
The remaining binding at 1 µM was 35%.

What about the remaining binding at 1 µM (PKNB(M. tuberculosis)) of the same molecule?
Its remaining binding at 1 µM is 89%.

What does the source list for CNc1c(-c2cnn([C@H]3CCN(C(C)=O)C[C@@H]3F)c2)cnc2[nH]cc(Cl)c12 [Compound 77, 1-((3S,4S)-4-(4-(3-chloro-4-(methylamino)-1H-pyrrolo[2,3-b]pyridin-5-yl)-1H-pyrazol-1-yl)-3-fluoropiperidin-1-yl)ethan-1-one]?
remaining binding at 1 µM (LTK): 75%; remaining binding at 1 µM (EGFR(L858R, T790M)): 99%; remaining binding at 1 µM (LRRK2(G2019S) [1]): 11%; remaining binding at 1 µM (SLK): 86%; remaining binding at 1 µM (INSRR): 92%; remaining binding at 1 µM (ALK(C1156Y)): 47%; remaining binding at 1 µM (CSNK1D): 84%; remaining binding at 1 µM (NEK3): 68%; remaining binding at 1 µM (CDK11): 96%; IC50 (LRRK2(G2019S) [2]): 10 to 100 nM; IC50 (LRRK2 WT enzyme): 10 to 100 nM; remaining binding at 1 µM (PKNB(M. tuberculosis)): 30%

Source: patent US12275731B2, “Azaindole inhibitors of wild-type and mutant forms of LRRK2” (DANA-FARBER CANCER INSTITUTE, INC., priority 2018, dated 2025)
